Assay [1] has as its system T1, tubulin.
T1 construct: Purified tubulin is obtained from bovine brain cells as described in Hamel and Lin
Kind of assay: Tubulin polymerization assay. The following applies: read-out: 50% inhibition of the maximum tubulin assembly rate; inhibition of rate rather than steady state. It counts as biochemical, bovine. The procedure:
The ability of the various above described compounds to inhibit tubulin polymerization can be determined by in vitro assay. A suitable assay system is that described by Bai et al. A method for purifying tubulin from bovine brain cells is described by Hamel and Lin.
IC50 values for tubulin polymerization were determined according to the procedure described in Bai et al. Purified tubulin is obtained from bovine brain cells as described in Hamel and Lin. Various amounts of inhibitor were preincubated for 15 minutes at 37° C. with purified tubulin. After the incubation period, the reaction was cooled and GTP was added to induce tubulin polymerization. Polymerization was then monitored in a Gilford spectrophotometer at 350 nm. The final reaction mixtures (0.25 ml) contained 1.5 mg/ml tubulin, 0.6 mg/ml microtubule-associated proteins (MAPs), 0.5 mM GTP, 0.5 mM MgCl2, 4% DMSO and 0.1 M 4-morpholineethanesulfonate buffer (MES, pH 6.4). […]

Assay [2] concerns tubulin. Kind of assay: Inhibition of binding of [3H]colchicine to tubulin. The conditions noted are these: comparator, concentration not given. The source says: A measurement of each compound's tubulin affinity may also be determined through the compound's ability to inhibit colchichine-tubulin binding. A suitable assay is that described by Kang et al., involving the use of commercially available tritiated colchicine. Decreases in the amount of [^3H]colchicine-tubulin interaction due to the competitive binding of one of the novel inhibitors of this invention may be measured by autoradiography or scintillation counting.

Take `COc1ccc(/C=C\c2cc(OC)c(OC)c(OC)c2)cc1O` [Combretastatin A-4, reference compound]: in assay [1], the IC50 was found to be […]. In assay [2], the “inhibition of the binding of [3H]colchicine to tubulin” value is “total inhibition”.
